≈ marks a conversion by molar mass, not a printed value. Like-named read-outs stand apart in the source and are kept apart here.
Assays:
Acute toxicity in mice = settings: mouse
Experimental: The acute toxicity of gentamicin B, gentamicin B1 and gentamicin X is determined in male CF-1 (Carworth Farms) mice weighing about 20 grams each.

Escherichia coli = assay: In vitro minimal inhibitory concentration, Escherichia coli; format: cell-based; settings: pH 7.4
Experimental: (§1) In Table III below is set forth the in vitro minimal inhibitory concentration of gentamicin B, gentamicin B1 and gentamicin X all in the free base form against a variety of gram positive and gram negative microorganisms. The experiments were carried out in a yeast beef broth medium at pH 7.4.

[1] = Chronic toxicity (ataxia) in cats after daily subcutaneous dosing; format: in vivo
From the text: There appears to be a causal relationship between high doses of amino-glycoside type antibiotics given over an extended period of time and vestibular damage wherein one of the early manifestations is ataxia. […] Moreover, they may be used at such dosages for a time interval substantially beyond that normally required to eliminate infection without causing ataxia; and with minimal, if any, toxic manifestations. Thus, gentamicin B and gentamicin B1 represent a substantial improvement over antibiotics of this class (amino-glycoside) that are currently in use.

Trichomonas vaginalis [2] = assay: In vitro activity against Trichomonas vaginalis; format: cell-based; settings: for MIC / MBC: Trichomonas vaginalis; for MIC: read-out: Minimal 99% Suppression Level; for MBC: read-out: Minimal Cidal Level
From the text: In Table VI below is set forth the in vitro activity of the compounds of this invention against T. vaginalis. The test procedure used was substantially as described by R. J. Schnitzer on pages 289-331 in Experimental Chemotherapy, Volume 1, Academic Press, New York (1963).

Shigella sp. M324 = assay: In vitro minimal inhibitory concentration, Shigella sp. M324; format: cell-based; settings: free base; yeast beef broth medium, pH 7.4
Experimental: as §1

[3] = system: Staphylococcus aureus Smith; assay: Protective activity in mice, Staphylococcus aureus Smith infection; format: in vivo; settings: sc, subcutaneous one hour after infection, survivors at 48 hours, read-out: PD50
Experimental: (§2) Infected non-treated controls die in about 18 to 24 hours. Generally 5-7 dose levels are administered to mice weighing about 20 grams in groups of 7-10.

Pseudomonas aeruginosa = assay: In vitro minimal inhibitory concentration, Pseudomonas aeruginosa; format: cell-based; settings: pH 7.4
Experimental: as §1

Klebsiella pneumoniae = assay: In vitro minimal inhibitory concentration, Klebsiella pneumoniae; format: cell-based; settings: pH 7.4
Experimental: as §1

[4] = system: Staphylococcus aureus Gray; assay: Protective activity in mice, Staphylococcus aureus Gray infection; format: in vivo; settings: sc, subcutaneous one hour after infection, survivors at 48 hours, read-out: PD50
Experimental: as §2

Sarcina lutea = assay: In vitro minimal inhibitory concentration, Sarcina lutea; format: cell-based; settings: pH 7.4
Experimental: as §1

Streptococcus pyogenes = assay: In vitro minimal inhibitory concentration, Streptococcus pyogenes; format: cell-based; settings: pH 7.4
Experimental: as §1

Salmonella paratyphi B = assay: Protective activity in mice, Salmonella paratyphi B infection; format: in vivo; settings: Salmonella enterica, sc, subcutaneous one hour after infection, survivors at 48 hours, read-out: PD50
Experimental: as §2

Bacillus subtilis = assay: In vitro minimal inhibitory concentration, Bacillus subtilis; format: cell-based; settings: pH 7.4
Experimental: as §1

[5] = system: Pseudomonas aeruginosa SC; assay: Protective activity in mice, Pseudomonas aeruginosa SC infection; format: in vivo; settings: subcutaneous one hour after infection, survivors at 48 hours, read-out: PD50
Experimental: as §2

Staphylococcus aureus W = assay: Protective activity in mice, Staphylococcus aureus W infection; format: in vivo; settings: sc, subcutaneous one hour after infection, survivors at 48 hours, read-out: PD50
Experimental: as §2

Streptococcus pyogenes C = assay: Protective activity in mice, Streptococcus pyogenes C infection; format: in vivo; settings: sc, subcutaneous one hour after infection, survivors at 48 hours, read-out: PD50
Experimental: as §2

Aerobacter aerogenes = assay: In vitro minimal inhibitory concentration, Aerobacter aerogenes; format: cell-based; settings: pH 7.4
Experimental: as §1

Staphylococcus aureus = assay: In vitro minimal inhibitory concentration, Staphylococcus aureus; format: cell-based; settings: pH 7.4
Experimental: as §1

Entamoeba histolytica [6] = assay: Stated activity against Entamoeba histolytica
Histomonas meleagridis = assay: Stated activity against Histomonas meleagridis
Syphacia obvelata [7] = assay: Stated anthelmintic activity against pinworms such as Syphacia obvelata
Syphacia obvelata [8] = assay: Anthelmintic activity in vivo against Syphacia obvelata in mice; set-up: species or system male Millerton mice; settings: for anthelmintic activity (in words): male Millerton mice
Trichomonas vaginalis [9] = assay: Stated activity against Trichomonas vaginalis
Trichomonas foetus = assay: Stated activity against Trichomonas foetus
Entamoeba hystolytica = assay: Activity against Entamoeba hystolytica (MIC and minimal cidal concentration); format: cell-based; settings: 48 hours
Escherichia coli SC = assay: Protective activity in mice, Escherichia coli SC infection; format: in vivo; settings: subcutaneous one hour after infection, survivors at 48 hours, read-out: PD50
Experimental: as §2

helminths = settings: cited from earlier work
protozoa = settings: cited from earlier work
Trichomonas vaginalis [10] = settings: at somewhat high dose ranges; cited from earlier work
Entamoeba histolytica [11] = settings: Albach et al., Am. J. Trop. Med. Hyg. 15, 885 (1965); cited from earlier work
[12] = free base, yeast beef broth medium, read-out: MIC

CNC1C(O)C(OC2C(N)CC(N)C(OC3OC(C(C)N)C(O)C(O)C3O)C2O)OCC1(C)O (centres unmarked) [Gentamicin B1]
LD50 (Acute toxicity in mice; in vivo, ip): 1600 mg/kg
LD50 (Acute toxicity in mice; in vivo, iv): 230 mg/kg
LD50 (Acute toxicity in mice; in vivo, po): > 250 mg/kg
LD50 (Acute toxicity in mice; in vivo, sc): > 1500 mg/kg
MIC (Escherichia coli; [12]): 0.08 to 0.3 µg/mL (≈ 0.161 to 0.604 µM)
Average No. Days to become ataxic ([1]; 40 mg/kg/day subcutaneous): 108.0 days
Average No. Days to become ataxic ([1]; 60 mg/kg/day subcutaneous): 69.0 days
Average No. Days to become ataxic ([1]; 240 mg/kg/day subcutaneous): 21.0 days
period of administration to cause impairment of the "righting reflex" and ataxia (in words) ([1]; high doses): required substantially longer periods of administration at high doses
ataxic potential (in words) ([1]; see Table VIII): low ataxic potential
MIC (Trichomonas vaginalis [2]; 24 hours): 25 µg/mL (≈ 50.3 µM)
MBC (Trichomonas vaginalis [2]; 24 hours): > 250 µg/mL
MIC (Trichomonas vaginalis [2]; 48 hours): 10 to 25 µg/mL (≈ 20.1 to 50.3 µM)
MBC (Trichomonas vaginalis [2]; 48 hours): 25 µg/mL (≈ 50.3 µM)
MIC (Shigella sp. M324): 5 µg/mL (≈ 10.1 µM)
ED50 [3]: 2.5 mg/kg
MIC (Pseudomonas aeruginosa; [12]): 0.08 µg/mL (≈ 0.161 µM)
MIC (Klebsiella pneumoniae; [12]): 3 µg/mL (≈ 6.04 µM)
ED50 [4]: 30 mg/kg
MIC (Sarcina lutea; [12]): 0.3 µg/mL (≈ 0.604 µM)
MIC (Streptococcus pyogenes; [12]): 3 µg/mL (≈ 6.04 µM)
ED50 (Salmonella paratyphi B): 4 mg/kg
MIC (Bacillus subtilis; [12]): 3 µg/mL (≈ 6.04 µM)
ED50 [5]: 2 mg/kg
ED50 (Staphylococcus aureus W): 50 mg/kg
ED50 (Streptococcus pyogenes C): 18 mg/kg
MIC (Aerobacter aerogenes; [12]): 0.08 µg/mL (≈ 0.161 µM)
MIC (Staphylococcus aureus; [12]): 0.3 to 3 µg/mL (≈ 0.604 to 6.04 µM)
antiprotozoal activity (in words) (Entamoeba histolytica [6]): to a lesser extent
antiprotozoal activity (in words) (Histomonas meleagridis): to a lesser extent
anthelmintic activity (in words) (Syphacia obvelata [7]): effective

CNC1C(O)C(OC2C(N)CC(N)C(OC3OC(CN)C(O)C(O)C3O)C2O)OCC1(C)O (centres unmarked) [Gentamicin B]
LD50 (Acute toxicity in mice; ip): 1750 mg/kg
LD50 (Acute toxicity in mice; iv): 228 mg/kg
LD50 (Acute toxicity in mice; po): > 250 mg/kg
LD50 (Acute toxicity in mice; sc): > 1500 mg/kg
MIC (Escherichia coli): 0.03 to 0.3 µg/mL (≈ 0.0622 to 0.622 µM)
ataxic potential (in words) ([1]; in vivo): low ataxic potential
period of administration to cause impairment of the "righting reflex" and ataxia (in words) ([1]; in vivo): required substantially longer periods of administration at high doses
MIC (Trichomonas vaginalis [2]; 24 h): 25 µg/mL (≈ 51.8 µM)
MBC (Trichomonas vaginalis [2]; 24 h): > 250 µg/mL
MIC (Trichomonas vaginalis [2]; 48 h): 25 µg/mL (≈ 51.8 µM)
MBC (Trichomonas vaginalis [2]; 48 h): 25 µg/mL (≈ 51.8 µM)
MIC (Shigella sp. M324): 5 µg/mL (≈ 10.4 µM)
ED50 [3]: 5 mg/kg
MIC (Pseudomonas aeruginosa): 0.03 to 0.08 µg/mL (≈ 0.0622 to 0.166 µM)
MIC (Klebsiella pneumoniae): 3 µg/mL (≈ 6.22 µM)
ED50 [4]: 20 mg/kg
MIC (Sarcina lutea): 0.3 µg/mL (≈ 0.622 µM)
MIC (Streptococcus pyogenes): 3 µg/mL (≈ 6.22 µM)
% Infected (Syphacia obvelata [8]; 8 mg/kg/day, 0.008% in diet): 67%
Mean Worm Burden (Syphacia obvelata [8]; 8 mg/kg/day, 0.008% in diet): 29.5
% Infected (Syphacia obvelata [8]; 39 mg/kg/day, 0.02% in diet): 0%
Mean Worm Burden (Syphacia obvelata [8]; 39 mg/kg/day, 0.02% in diet): 0
% Infected (Syphacia obvelata [8]; 100 mg/kg/day, 0.0625% in diet): 0%
Mean Worm Burden (Syphacia obvelata [8]; 100 mg/kg/day, 0.0625% in diet): 0
% Infected (Syphacia obvelata [8]; 259 mg/kg/day, 0.25% in diet): 0%
Mean Worm Burden (Syphacia obvelata [8]; 259 mg/kg/day, 0.25% in diet): 0
minimal effective dose (Syphacia obvelata [8]; Syphacia obvelata, read-out: minimum dosage with anthelmintic activity): 39 mg/kg/day
anthelmintic activity (in words) (Syphacia obvelata [8]): exhibit anthelmintic activity
ED50 (Salmonella paratyphi B): 5 mg/kg
MIC (Bacillus subtilis): 0.8 µg/mL (≈ 1.66 µM)
ED50 [5]: 2 mg/kg
ED50 (Staphylococcus aureus W): 50 mg/kg
ED50 (Streptococcus pyogenes C): 15 mg/kg
MIC (Aerobacter aerogenes): 0.08 µg/mL (≈ 0.166 µM)
MIC (Staphylococcus aureus): 0.3 to 3 µg/mL (≈ 0.622 to 6.22 µM)
antiprotozoal activity (in words) (Entamoeba histolytica [6]): to a lesser extent
antiprotozoal activity (in words) (Histomonas meleagridis): to a lesser extent
anthelmintic activity (in words) (Syphacia obvelata [7]): effective

CNC1C(O)C(OC2C(N)CC(N)C(OC3OC(CO)C(O)C(O)C3N)C2O)OCC1(C)O (centres unmarked) [Gentamicin X]
LD50 (Acute toxicity in mice; in vivo, ip): > 1000 mg/kg
LD50 (Acute toxicity in mice; in vivo, iv): 225 mg/kg
antiprotozoal activity (in words) (Trichomonas vaginalis [9]): effective
MIC (Escherichia coli; [12]): 0.3 µg/mL (≈ 0.622 µM)
MIC (Trichomonas vaginalis [2]; 48 hours): 2.5 µg/mL (≈ 5.18 µM)
MBC (Trichomonas vaginalis [2]; 48 hours): 10 µg/mL (≈ 20.7 µM)
MIC (Pseudomonas aeruginosa; [12]): 0.3 to 0.75 µg/mL (≈ 0.622 to 1.55 µM)
MIC (Klebsiella pneumoniae; [12]): 0.75 µg/mL (≈ 1.55 µM)
ED50 [4]: 4 mg/kg
MIC (Streptococcus pyogenes; [12]): 0.3 to 0.75 µg/mL (≈ 0.622 to 1.55 µM)
anthelmintic effect (in words) (Syphacia obvelata [8]; 62 mg/kg/day): partially effective
% Infected (Syphacia obvelata [8]; 62 mg/kg/day, 0.05% in diet): 83%
Mean Worm Burden (Syphacia obvelata [8]; 62 mg/kg/day, 0.05% in diet): 27
anthelmintic effect (in words) (Syphacia obvelata [8]; 310 mg/kg/day): totally effective
% Infected (Syphacia obvelata [8]; 310 mg/kg/day, 0.25% in diet): 0%
Mean Worm Burden (Syphacia obvelata [8]; 310 mg/kg/day, 0.25% in diet): 0
anthelmintic activity (in words) (Syphacia obvelata [8]): exhibit anthelmintic activity
MIC (Bacillus subtilis; [12]): 0.03 µg/mL (≈ 0.0622 µM)
ED50 [5]: 7 mg/kg
antiprotozoal activity (in words) (Trichomonas foetus): effective
MBC (Entamoeba hystolytica): 7 µg/mL (≈ 14.5 µM)
MIC (Entamoeba hystolytica; read-out: minimal inhibitory concentration): 4 µg/mL (≈ 8.29 µM)
MIC (Staphylococcus aureus; [12]): 0.08 to 0.75 µg/mL (≈ 0.166 to 1.55 µM)
ED50 (Escherichia coli SC): 1.5 mg/kg
antiprotozoal activity (in words) (Entamoeba histolytica [6]): effective
antiprotozoal activity (in words) (Histomonas meleagridis): effective
anthelmintic activity (in words) (Syphacia obvelata [7]): effective

NC[C@@H]1O[C@H](O[C@H]2[C@@H](O)[C@H](O[C@@H]3[C@@H](O)[C@H](N)C[C@H](N)[C@H]3O[C@H]3O[C@H](CO)[C@@H](O)[C@H](O)[C@H]3N)O[C@@H]2CO)[C@H](N)[C@@H](O)[C@@H]1O [paromomycin]
anthelmintic activity (in words) (helminths): exhibit anthelmintic activity in reasonably useful dosage ranges
antiprotozoal activity (in words) (protozoa): known to exhibit antiprotozoal activity to any substantial degree

Gentamicin C [Garamycin®, reference compound]
Minimal 99% Suppression Level (Trichomonas vaginalis [2]; 24 hours): 250 µg/mL
Minimal Cidal Level (Trichomonas vaginalis [2]; 24 hours): > 250 µg/mL
Minimal 99% Suppression Level (Trichomonas vaginalis [2]; 48 hours): 100 µg/mL
Minimal Cidal Level (Trichomonas vaginalis [2]; 48 hours): 100 µg/mL
activity against T. vaginalis (in words) (Trichomonas vaginalis [10]): only slight activity
activity against E. histolytica (in words) (Entamoeba histolytica [11]): relatively ineffective

— patent US4389398A, “Amino glycoside antibiotics having antiprotozoal and anthelmintic activity” (priority 1978, dated 1983)
